According to patent US9708628B2, “Cationic lipid having improved intracellular kinetics” (NOF CORPORATION, priority 2011, dated 2017):

How the values were obtained:
[1] = Particle size and surface potential of siRNA-encapsulated MEND (ethanol dilution method); format: physicochemical; details: siRNA/protamine MEND, PEG2000-DMG 3 mol %
Experimental: A siRNA solution and protamine (CALBIOCHEM) solution were diluted with 10 mM HEPES buffer (pH 5.3) to 0.3 mg/mL and 0.2 mg/mL, respectively. While stirring 0.3 mg/mL siRNA solution (250 μL), 0.2 mg/mL protamine solution (250 μL) was added dropwise in small portions to prepared an electrostatic complex of siRNA and protamine (N/P ratio=1.0) as a core of the vector.
A lipid solution in ethanol was mixed at a ratio of B-2:SOPE:Chol=5:3:2 for B-2 MEND (Example 1), at a ratio of B-2-4:DOPE:Chol=3:3:4 for B-2-4 MEND (Example 4), and at a ratio of B-2-5:POPE:Chol=3:4:3 for B-2-5 MEND (Example 5), to a total lipid of 660 nmol in a 5 mL tube. Further, PEG2000-DMG was added as PEG lipid in an amount equivalent to 3 mol % of the total lipid, and ethanol was added to a total volume of 400 μL each. While stirring the lipid solution by a vortex mixer, a solution (400 μL) of a nucleic acid electrostatic complex composed of siRNA/protamine prepared in [Experimental Example 27] was mixed, then 10 mM HEPES buffer (pH 5.3, 2.4 mL) was quickly added, and the mixture was vigorously stirred. The mixture was subjected to centrifugal ultrafiltration using Amicon Ultra-15 100K device (Millipore) at 1000 g, 10 min, 30° C. The mixture was sufficiently diluted with 10 mM HEPES buffer (pH 7.4), and again subjected to centrifugal ultrafiltration. This solution was adjusted to an object lipid concentration with 10 mM HEPES buffer (pH 7.4).
The particle size and surface potential were measured using the dynamic light scattering method (Zetasizer Nano; Malvern). The particle size and surface potential of various MENDs prepared by the preparation method of [Experimental Example 28] are shown in Table 5.

[2] = test system: HT1080 cells; assay: Intracellular kinetics: endosomal escape of rhodamine-labeled pDNA (confocal microscopy); format: cell-based; details: for gene endosomal escape efficiency, quantified (order): FIG. 7; for endosomal escape potency (colocalization of pDNA red and endosome/lysosome green): cationic lipid:SOPE:Chol=5:3:2 or DOTAP:DOPE:Chol=3:4:3, 3 hr after transfection
Experimental: For MEND preparation, the Rhodamine-labeled pDNA prepared by the method of [Experimental Example 1] (4) was used. MEND having a composition of cationic lipid:SOPE:Chol=5:3:2 was prepared by the method described in [Experimental Example 1] (2). For the preparation, PEG2000-DMG was used as PEG lipid, and MEND solutions corresponding to 0.55 mM of the lipid concentration were prepared. For cationic MEND, lipids having a composition of DOTAP (Comparative Example 3):DOPE:Chol:=3:4:3 were used, and the cationic MEND was prepared according to the method described in [Experimental Example 1] (3). In addition, cationic MEND having a lipid composition of DOTAP:DOPE:Chol:=3:4:3 was also prepared by a simple hydration method to have a lipid concentration of 0.55 mM.
HT1080 cells were plated on a glass bottom dish at 1×10^5 cells/2 mL/dish 24 hr before. Since MENDs composed of B-2 or DODAP show low uptake activity into cells, MEND was diluted with Krebs buffer to pDNA 8 μg/1 mL Krebs buffer/dish. As for B-2-1 or DOTAP MEND having a high uptake activity, MEND was diluted with Krebs buffer to pDNA 1.6 μg/1 mL Krebs buffer/dish and transfected into the cells. After 2.5 hr, Lysotracker Green (Life technologies) was added at 1 μL/dish and, 30 min later, Hoechst 33342 (Dojindo) was further added at 1 μL/dish. 3 hr after the transfection, the cells were washed twice with heparin (20 units/mL, 2 mL), Krebs buffer (1 mL) was added, and the mixture was observed by a confocal laser scan microscope.
Rhodamine-labeled pDNA, endosome/lysosome, and nucleus were shown in pseudo colors of red, green and blue, respectively. The endosomal escape potency was evaluated by the colocalization of red and green. […] Furthermore, the gene endosomal escape efficiency was quantified to find higher efficiency in the order of DODAP<B-2-1<B-2.

[3] = test system: HT1080 cells; assay: Influence of endosome/lysosome acidification inhibition (bafilomycin A1) on gene expression activity; format: cell-based; details: 0.5 μM bafilomycin A1
Experimental: Using B-2 (Example 1), B-2-1 (Comparative Example 1), and DODAP (Comparative Example 2) as cationic lipids, MENDs having a composition of cationic lipid:SOPE:Chol=5:3:2 were prepared by the method described in [Experimental Example 1] (2). For the preparation, PEG2000-DMG was used as PEG lipid, and MEND solutions corresponding to 0.55 mM of the lipid concentration were prepared. For cationic MEND, lipids having a composition of DOTAP (Comparative Example 3):DOPE:Chol:=3:4:3 were used, and the cationic MEND was prepared according to the method described in [Experimental Example 1] (3).
HT1080 cells were plated on a 24-well plate at 4×10^4 cell/500 μL/well 24 hr before, bafilomycin A1 was added at 0.5 μM 30 min before for a pre-treatment. Various MENDs were diluted with DMEM (FBS 10%+) to a pDNA amount of 0.4 μg/500 μL/well, bafilomycin A1 was added at 0.5 μM, and transfection was performed. 3 hr later, the MEND solution was removed, and DMEM (FBS 10%+) was added at 500 μL/well to change the medium. 24 hr later, the cells were washed with PBS(−) (500 μL), 1× Lysis buffer was added to each well by 75 μL, and the mixture was stood at −80° C. for 30 min or longer. The frozen 24-well plate was thawed on ice, the cells were detached with a cell scraper, and the total amount thereof was transferred into an Eppendorf tube and centrifuged under the conditions of 15000 rpm, 4° C., 5 min. The supernatant (50 μL) was recovered in a different Eppendorf tube, and used for luciferase assay and BCA assay. The gene expression was evaluated by the method described in [Example 4] (2).

PDI [1]	size (nm) [1] [nm]	zeta (mV) [1] [mV]	Compound	gene endosomal escape efficiency, quantified (order) [2]	endosomal escape potency (colocalization of pDNA red and endosome/lysosome green) [2]	gene expression activity under bafilomycin A1 [3]
0.11	186	−5.1	CC1=C(/C=C/C(C)=C/C=C/C(C)=C/C(=O)OCCCN(C)CCSSCCN(C)CCCOC(=O)/C=C(C)/C=C/C=C(C)/C=C/C2=C(C)CCCC2(C)C)C(C)(C)CCC1 [Example B-2-4]			
			CCCCCCCC/C=C\CCCCCCCC(=O)OCC(CN(C)C)OC(=O)CCCCCCC/C=C\CCCCCCCC (centres unmarked) [DODAP, reference compound]	DODAP<B-2-1<B-2	colocalization of red and green was notable	showed a decrease in the gene expression activity
			CCCCCCCC/C=C\CCCCCCCC(=O)OCC(C[N+](C)(C)C)OC(=O)CCCCCCC/C=C\CCCCCCCC (centres unmarked) [DOTAP, reference compound]		red signal alone was present	did not show a decrease in the gene expression activity
			CCCCCCCCCCCCCC(=O)OCCCN(C)CCCCCCN(C)CCCOC(=O)CCCCCCCCCCCCC [Example B-2-1, reference compound]	DODAP<B-2-1<B-2	red signal alone was present	did not show a decrease in the gene expression activity
0.13	218	−9.1	Cc1c(C)c2c(c(C)c1OC(=O)CCC(=O)OCCCN(C)CCSSCCN(C)CCCOC(=O)CCC(=O)Oc1c(C)c(C)c3c(c1C)CCC(C)(CCCC(C)CCCC(C)CCCC(C)C)O3)CCC(C)(CCCC(C)CCCC(C)CCCC(C)C)O2 (centres unmarked) [Example B-2-5]			

Compound	PDI [1]	size (nm) [1] [nm]	zeta (mV) [1] [mV]	gene endosomal escape efficiency, quantified (order) [2]	endosomal escape potency (colocalization of pDNA red and endosome/lysosome green) [2]	gene expression activity under bafilomycin A1 [3]
CCCCCCCCCCCCCC(=O)OCCCN(C)CCSSCCN(C)CCCOC(=O)CCCCCCCCCCCCC [Example B-2]	0.07	186	−1.7	DODAP<B-2-1<B-2	red signal alone was present	showed a decrease in the gene expression activity
